The results in this text go back to ChEMBL document CHEMBL1139300, “Identification of a small molecule beta-secretase inhibitor that binds without catalytic aspartate engagement” (Bioorg Med Chem Lett, 2009).

Some results are limits rather than exact numbers.

The target of the assay is Beta-secretase 1 (Homo sapiens, UniProt P56817). The experiment in a line: Inhibition of BACE1.
Sequence of Beta-secretase 1 (P56817 whole entry): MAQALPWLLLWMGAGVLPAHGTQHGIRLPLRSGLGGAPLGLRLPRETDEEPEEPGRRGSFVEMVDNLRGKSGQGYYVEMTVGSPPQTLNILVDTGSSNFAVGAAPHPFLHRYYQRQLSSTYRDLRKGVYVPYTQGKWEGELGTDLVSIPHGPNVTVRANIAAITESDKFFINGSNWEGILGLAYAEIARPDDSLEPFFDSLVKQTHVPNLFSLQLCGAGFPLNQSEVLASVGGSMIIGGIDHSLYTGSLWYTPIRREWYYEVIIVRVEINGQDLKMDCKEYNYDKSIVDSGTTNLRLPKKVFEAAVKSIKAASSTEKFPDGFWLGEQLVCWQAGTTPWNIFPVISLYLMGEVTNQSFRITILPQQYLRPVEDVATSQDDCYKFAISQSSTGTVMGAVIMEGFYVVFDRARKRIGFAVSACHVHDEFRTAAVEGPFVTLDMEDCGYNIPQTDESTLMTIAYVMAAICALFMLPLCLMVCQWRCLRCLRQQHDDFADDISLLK
`C=CCc1ccc(Nc2cc(-c3ccccc3)ncn2)cc1NS(C)(=O)=O` yielded a 50% inhibitory concentration (IC50) of 570 µM. Next, `CS(=O)(=O)Nc1cc(Nc2cc(-c3ccccc3)ncn2)ccc1-c1ccccc1`: above 600 µM; `O=[N+]([O-])c1cc(Nc2cc(-c3ccccc3)ncn2)ccc1Br`: above 600 µM. In the case of `Cc1ccc(Nc2cc(-c3ccccc3)ncn2)cc1N(C)S(C)(=O)=O`, the IC50 is above 1600 µM. For `Cc1ccc(Nc2cc(-c3ccc4c(c3)OCCO4)ncn2)cc1NS(C)(=O)=O`, the IC50 worked out at 21 µM. Turning to `Cc1ccc(Nc2cc(-c3ccc(CCCO)cc3)ncn2)cc1NS(C)(=O)=O`, half-maximal inhibition (IC50) was put at 37 µM. `Cc1ccc(Nc2cc(-c3ccccc3C)ncn2)cc1NS(C)(=O)=O` displayed an IC50 of 219 µM. Next, `CS(=O)(=O)Nc1cc(Nc2cc(-c3ccccc3)ncn2)ccc1Br`: 30 µM; `CS(=O)(=O)Nc1cc(Nc2cc(-c3ccccc3)ncn2)ccc1F`: 110 µM; `Cc1ccc(Nc2cc(-c3ccccc3)ncn2)cc1NS(C)(=O)=O`: 24 µM. Take `Cc1ccc(Nc2cc(-c3ccc(-c4ccccc4)cc3)ncn2)cc1NS(C)(=O)=O`: the IC50 came out at 19 µM.

For the molecule `Cc1ccc(Nc2cc(-c3ccccc3N(C)C)ncn2)cc1NS(C)(=O)=O`, the IC50 is 317 µM. The molecule `CC(=O)Nc1cc(Nc2cc(-c3ccccc3)ncn2)ccc1C` had an IC50 above 600 µM. `Cc1ccc(Nc2cc(-c3ccc(N(C)C)cc3)ncn2)cc1NS(C)(=O)=O` returned an IC50 of 15 µM. Molecule `CS(=O)(=O)Nc1cc(Nc2cc(-c3ccccc3)ncn2)ccc1Cl` showed an IC50 of 16 µM. The molecule `CS(=O)(=O)Nc1cccc(Nc2cc(-c3ccccc3)ncn2)c1` registered an IC50 of 400 µM. In turn, `Nc1cc(Nc2cc(-c3ccccc3)ncn2)ccc1Br` gave an IC50 above 600 µM. Molecule `COc1ccc(Nc2cc(-c3ccccc3)ncn2)cc1NS(C)(=O)=O` registered an IC50 of 69 µM.

What is called IC50 is the concentration that gives 50% inhibition. A high value points to a need for much substance.
